# Measured values as given in ChEMBL document CHEMBL5331124, “Degradation of Hexokinase 2 Blocks Glycolysis and Induces GSDME-Dependent Pyroptosis to Amplify Immunogenic Cell Death for Breast Cancer Therapy” (J Med Chem, 2023).
# Calls of active or inactive are those of the source. The rule behind the calls is not given here.
# How the values were obtained:
# HGC-27 = assay: Potency index, ratio of IC50 for lonidamine to test compound IC50 for human HGC-27 cells assessed as cell growth inhibition measured for 72 hrs by MTT assay; type: functional
# 4T1 [1] = assay: Antiproliferative activity against mouse 4T1 cells expressing SiHK2 assessed as cell growth inhibition measured for 72 hrs by MTT assay; type: functional, cell-based
# HUVEC-T1 cell = assay: Inhibition of colony formation in human HUVEC-T1 cell at 5 to 20 uM incubated for 48 hrs by giemsa staining based analysis; type: functional; settings: dose 5-20 µM
# [2] = molecular target: T1, Hexokinase-2 (Mus musculus) (UniProt O08528); assay: Induction of HK2 degradation in mouse 4T1 cells upto 200 uM measured at 12 to 36 hrs; type: cell-based; settings: time 12-36 hrs
# T1 sequence (whole entry): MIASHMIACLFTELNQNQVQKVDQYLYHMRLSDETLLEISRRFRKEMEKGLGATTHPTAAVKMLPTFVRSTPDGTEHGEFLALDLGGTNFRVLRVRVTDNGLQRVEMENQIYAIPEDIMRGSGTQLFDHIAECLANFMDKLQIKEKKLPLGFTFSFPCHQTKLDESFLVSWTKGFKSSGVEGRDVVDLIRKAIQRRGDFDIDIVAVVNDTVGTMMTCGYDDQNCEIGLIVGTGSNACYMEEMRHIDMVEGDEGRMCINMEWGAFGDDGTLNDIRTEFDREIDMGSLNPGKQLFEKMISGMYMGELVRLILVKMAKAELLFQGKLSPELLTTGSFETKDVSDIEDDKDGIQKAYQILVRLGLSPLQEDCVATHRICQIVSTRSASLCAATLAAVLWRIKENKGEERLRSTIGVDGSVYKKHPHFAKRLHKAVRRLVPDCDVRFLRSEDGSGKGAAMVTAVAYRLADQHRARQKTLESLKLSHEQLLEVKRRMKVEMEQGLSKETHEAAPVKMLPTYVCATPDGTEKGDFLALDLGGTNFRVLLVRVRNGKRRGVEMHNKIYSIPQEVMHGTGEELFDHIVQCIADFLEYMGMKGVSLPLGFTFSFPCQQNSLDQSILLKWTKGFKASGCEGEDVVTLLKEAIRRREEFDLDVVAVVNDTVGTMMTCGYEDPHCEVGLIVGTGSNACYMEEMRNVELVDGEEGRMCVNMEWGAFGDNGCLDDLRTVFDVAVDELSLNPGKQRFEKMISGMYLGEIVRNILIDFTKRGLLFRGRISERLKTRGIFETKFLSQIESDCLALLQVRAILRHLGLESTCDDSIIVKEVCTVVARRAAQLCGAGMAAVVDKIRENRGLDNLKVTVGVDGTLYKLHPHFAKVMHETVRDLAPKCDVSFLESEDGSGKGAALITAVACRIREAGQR
# [3] = molecular target: Protein cereblon/Hexokinase-2 (Mus musculus) (UniProt O08528+Q8C7D2); assay: PROTAC activity at CRBN/HK2 in mouse 4T1 cells assessed as […] ternary complex formation at 10 uM incubated for 24 hrs; type: cell-based
# [4] = molecular target: T2, Hexokinase-2 (Homo sapiens) (UniProt P52789); assay: Induction of HK2 degradation in human MDA-MB-231 cells assessed as decrease in Bcl-2 expression at 20 uM measured for 36 hrs by Western blot analysis; type: cell-based
# T2 sequence (whole entry): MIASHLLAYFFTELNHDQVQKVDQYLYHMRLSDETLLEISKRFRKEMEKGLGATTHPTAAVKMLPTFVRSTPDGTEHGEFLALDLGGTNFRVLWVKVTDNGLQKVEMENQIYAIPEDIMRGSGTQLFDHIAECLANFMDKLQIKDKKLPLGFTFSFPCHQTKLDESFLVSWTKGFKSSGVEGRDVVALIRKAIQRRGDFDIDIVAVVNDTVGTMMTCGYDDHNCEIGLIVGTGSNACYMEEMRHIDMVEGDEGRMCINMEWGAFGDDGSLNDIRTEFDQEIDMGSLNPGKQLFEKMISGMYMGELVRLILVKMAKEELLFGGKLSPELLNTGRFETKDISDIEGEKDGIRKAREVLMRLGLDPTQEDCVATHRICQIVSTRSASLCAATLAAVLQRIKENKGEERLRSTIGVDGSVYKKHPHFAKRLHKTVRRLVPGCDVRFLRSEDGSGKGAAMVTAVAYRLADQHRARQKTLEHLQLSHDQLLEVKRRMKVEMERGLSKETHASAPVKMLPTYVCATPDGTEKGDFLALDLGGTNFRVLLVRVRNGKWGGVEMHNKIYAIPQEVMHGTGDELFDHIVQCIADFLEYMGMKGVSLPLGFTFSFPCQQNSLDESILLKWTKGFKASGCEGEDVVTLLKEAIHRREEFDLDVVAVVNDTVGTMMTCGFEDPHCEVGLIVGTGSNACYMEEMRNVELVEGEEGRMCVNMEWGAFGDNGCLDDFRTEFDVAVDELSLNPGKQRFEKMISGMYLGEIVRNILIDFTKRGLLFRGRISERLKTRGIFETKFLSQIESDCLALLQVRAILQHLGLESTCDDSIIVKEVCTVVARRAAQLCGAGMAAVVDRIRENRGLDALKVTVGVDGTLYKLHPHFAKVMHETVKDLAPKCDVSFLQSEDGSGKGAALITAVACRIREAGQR
# 4T1 [5] = assay: Induction of pyroptosis in mouse 4T1 cells assessed as […] in cleaved caspase-3 level at 20 uM incubated for 36 hrs; type: functional, cell-based
# 4T1 [6] = assay: Induction of pyroptosis in mouse 4T1 cells assessed as increase in N-terminal GSDME level at 20 uM incubated for 36 hrs; type: functional, cell-based
# 4T1 [7] = assay: Antitumor immunity against mouse 4T1 cells implanted in BALB/c mouse model assessed as increase in ATP release in cell supernatant at 20 uM measured for 36 hrs by ELISA analysis; type: functional, cell-based
# 4T1 [8] = assay: Antitumor activity against mouse 4T1 cells xenografted in BALB/c mouse assessed as reduction in tumor growth at 50 mg/kg, ip measured after 23 days; type: functional, organism-based; settings: time 23.0 day
# [9] = Toxicity in BALB/c mouse implanted with mouse 4T1 cells assessed as pathological changes in spleen at 50 mg/kg, ip measured after 25 days by Hematoxylin -eosin staining based analysis; type: organism-based; settings: in vivo, 600 h, time 25 day
# [10] = Toxicity in BALB/c mouse implanted with mouse 4T1 cells assessed as pathological changes in kidney at 50 mg/kg, ip measured after 25 days by Hematoxylin -eosin staining based analysis; type: organism-based; settings: in vivo, 600 h, time 25 day
# [11] = Toxicity in BALB/c nude mouse xenografted with human MDA-MB-231 cells assessed as effect on mean corpuscular volume at 50 mg/kg, ip measured after 30 days by routine blood test; type: organism-based; settings: in vivo, 720 h, time 30 day
# [12] = Toxicity in BALB/c nude mouse xenografted with human MDA-MB-231 cells assessed as effect on mean corpuscular hemoglobin at 50 mg/kg, ip measured after 30 days by routine blood test; type: organism-based; settings: in vivo, 720 h, time 30 day
# MDA-MB-231 = assay: Antitumor activity against human MDA-MB-231 cells xenografted in BALB/c nude mouse assessed as increase in cleaved caspase-3 level at 50 mg/kg, ip measured after 28 days; type: functional, organism-based; settings: time 28.0 day
# Chain of Protein cereblon/Hexokinase-2 (Mus musculus) (Q8C7D2 whole entry, looked up, one chain of several): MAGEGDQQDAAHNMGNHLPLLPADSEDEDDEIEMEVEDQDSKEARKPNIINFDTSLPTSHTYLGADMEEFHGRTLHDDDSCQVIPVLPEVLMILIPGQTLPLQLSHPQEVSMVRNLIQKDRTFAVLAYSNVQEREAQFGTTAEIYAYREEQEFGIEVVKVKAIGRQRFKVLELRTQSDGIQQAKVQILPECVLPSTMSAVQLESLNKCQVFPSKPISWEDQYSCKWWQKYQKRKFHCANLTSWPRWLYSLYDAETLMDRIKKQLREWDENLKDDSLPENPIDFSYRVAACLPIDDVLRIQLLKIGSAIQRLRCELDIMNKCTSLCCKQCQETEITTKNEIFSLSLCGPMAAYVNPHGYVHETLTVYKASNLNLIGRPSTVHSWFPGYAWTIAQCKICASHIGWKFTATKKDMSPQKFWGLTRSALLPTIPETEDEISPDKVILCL
compound,measurement,setting,value
O=C1CCC(N2C(=O)c3cccc(NCCCCNC(=O)c4nn(Cc5ccc(Cl)cc5Cl)c5ccccc45)c3C2=O)C(=O)N1 (stereo not given),Ratio IC50,HGC-27,12.7
same,Activity,4T1 [1],inactive
same,inhibition,HUVEC-T1 cell,inactive
same,Activity,[2],Active
same,Activity,[3],Active
same,Activity,[4],Active
same,Activity,4T1 [5],Active
same,Activity,4T1 [6],Active
same,Activity,4T1 [7],Active
same,Activity,4T1 [8],Active
same,Activity,[9],Non-Toxic
same,Activity,[10],Non-Toxic
same,Activity,[11],Non-Toxic
same,Activity,[12],Non-Toxic
same,Activity,MDA-MB-231,Active
